One experiment concerns HUVEC. Kind of experiment: XTT cytotoxicity/proliferation assay, HUVEC. The format is cell-based, human. Here is the method: To assess the antiproliferative effects of the tested substances in vitro, tumor cell line CCRF-CEM derived from acute lymphoblastic leukemia and normal (healthy) HUVEC endothelial cells from umbilical vein were used. Both of these cell lines were cultured under optimal conditions for their growth in the appropriate medium in plastic bottles or plastic Petri dishes of various sizes (TPP, BD Biosciences) at 37° C., 5% CO2 and 95% humidity. HUVEC cells were purchased from BD Biosciences. CCRF-CEM cell line was obtained from ATCC/LGC Standards (American Type Cell Collection). Normal human endothelial cells from the umbilical vein are adherent cells, which were grown in plastic Petri dishes coated with collagen I. The culture medium (E-STIMTM; BD Biosciences, cat. […] Then, 5 ml of complete culture media E-STIM™ was added and the cells were centrifuged (180×g, 7 minutes), resuspended and transferred in a desired amount in a new Petri dish with fresh medium. In the experiments cells between passages 3 and 8 (after thawing) were used. Population doubling time of HUVEC cells under the used culture conditions is 38 hours. For testing of the sensitivity of cell lines to studied helquats XTT cytotoxicity/proliferation assay for determination of cell viability was used. This method is based on the ability of metabolically active cells to reduce the yellow tetrazolium salt XTT to orange formazan. The rate of conversion is measured as the increase in absorbance at 492 nm and is proportional to the enzymatic activity of mitochondrial dehydrogenases and thus the number of metabolically active (viable) cells. […] Thus it reflects the effectiveness of the test substance towards the tested cell line. Cells in exponential growth phase were plated into 96-well microtiter plate at a concentration of 3000 cells per well. Each well contained 90 μl of cell suspension. The following day, 10 μl of 10× concentrated test substances was added. […] In addition to the part of the plate containing the mentioned dilutions of test compounds there were always two control columns present, first column with medium alone (i.e. blank) and the second column with the cells in medium without test compounds (control). Into the blank and control wells the same volume of solvent (water) as the volume of the substances was added. After 72 hours of treatment with substances the measurement of viability was performed according to the manufacturer instructions. Briefly, into each well of a 96-well microtiter plate 50 μl of the prepared working solution of XTT (detection reagent) was added and then the microtiter plate was returned to the CO2 incubator. After 2 hours, the absorbance of each well at 492 nm (reference wavelength 690 nm) was measured using a multifunctional microplate reader (Tecan Genios, Austria).
On the technique in general: Tetrazolium dyes change colour on reduction, which living cells bring about.

The subject of experiment [1] is G-quadruplex in promoter region of the c-myc gene (NHE III1 segment). Kind of experiment: Dual luciferase analysis with plasmid pGL4.10-myc (luc2) in HGC-27 cells. The class given is cell-based, human. The conditions noted are these: for inhibition at 50 µM / activity at 50 µM: Homo sapiens; for inhibition at 50 µM: HGC-27, text summary of tab. 5 (50 μmol·l^−1), read-out: inhibition of expression of firefly luciferase as compared to control; for activity at 50 µM: read-out: luciferase expression relative to control (control = 100%); for Quantification of expression relative to control (%): control = 100%. From the text:
A dual luciferase analysis was used to determine the degree of stabilization of G-quadruplex in a promoter region of the c-myc gene on cellular level. Stabilization of G-quadruplex is expressed as the ratio of expression of two luciferases (firefly and Renilla) from the co-transfected vectors pGL4.10-myc (luc2) and pRL-TK (Renilla) into a cell line HGC-27 expressing c-myc protein. Expression of the reporter gene (firefly luciferase) from pGL4.10-myc vector is controlled by the c-myc regulatory region of a length of 860 by (in the range from −306 to +554). The inserted sequence contains NHE III1 segment which forms G-quadruplex [Yang, D. et al. (2010) Future Med Chem., 2, 619], and is responsible for as much as 90% of the transcriptional activity of the c-myc gene.
Level of expression of firefly luciferase reporter gene corresponds to promoter activity of c-myc and thus to the degree of stabilization of the G-quadruplex. The signal is normalized to Renilla luciferase expression from pRL-TK vector under the control of a constitutive viral thymidine kinase (HSV-TK) promoter. The amount of Renilla luciferase expression serves as an internal control for normalization of firefly signal on transfection efficiency in the sample. Plasmids pGL4.10-myc (luc2) and pRL-TK were propagated in Escherichia coli (DH5α strain) and purified using the Qiagen Plasmid Mini and Midi kits. Cells were cultured under standard conditions and in exponential growth phase were seeded into a white 96-well microtiter plates. Transfection was carried out using a transfection reagent X-tremeGENE HP DNA in OptiMEM media for two hours. The ratio of reporter and control vector was 1:1 and the ratio of transfection reagent to the total amount of DNA was 1:1. Two hours after transfection helquats were added in a concentration of 50 μmol·l^−1. Quantity of firefly and Renilla luciferases in the samples was determined 24 hours after transfection. Dual luciferase analysis was performed using a commercially available kit (Promega, cat. No. E1960) according to manufacturer's instructions. Luminescence was measured using a luminometer EnSpire Alpha Plate Reader. The data obtained were normalized to the Renilla luciferase signal and then the values were related to control.

The next experiment has as its system CCRF-CEM. Kind of experiment: XTT cytotoxicity/proliferation assay, CCRF-CEM. The class given is cell-based. Here is the method:
To assess the antiproliferative effects of the tested substances in vitro, tumor cell line CCRF-CEM derived from acute lymphoblastic leukemia and normal (healthy) HUVEC endothelial cells from umbilical vein were used. Both of these cell lines were cultured under optimal conditions for their growth in the appropriate medium in plastic bottles or plastic Petri dishes of various sizes (TPP, BD Biosciences) at 37° C., 5% CO2 and 95% humidity. HUVEC cells were purchased from BD Biosciences. CCRF-CEM cell line was obtained from ATCC/LGC Standards (American Type Cell Collection).
Suspension cell line CCRF-CEM is a continuous in vitro culture of acute lymphoblastic leukemia. Cell line CCRF-CEM was grown in RPMI 1640 medium (Sigma-Aldrich, cat. No. R8758) supplemented with 2 mmol·l^−1 glutamine (Invitrogen, cat. No. 35050-038), 10% fetal bovine serum (FBS; Sigma-Aldrich, cat. No. F9665), 100 IU/ml penicillin, 100 μg/ml streptomycin (Sigma-Aldrich, cat. No. P0781). Passaging was carried out 2-3 times a week. Population doubling time of CCRF-CEM cells under the used culture conditions is 20 hours.
For testing of the sensitivity of cell lines to studied helquats XTT cytotoxicity/proliferation assay for determination of cell viability was used. This method is based on the ability of metabolically active cells to reduce the yellow tetrazolium salt XTT to orange formazan. The rate of conversion is measured as the increase in absorbance at 492 nm and is proportional to the enzymatic activity of mitochondrial dehydrogenases and thus the number of metabolically active (viable) cells. The output is the IC50 value corresponding to the concentration of the test substance that causes a decrease in the number of viable cells by half (i.e. 50% slowdown of cell division) relative to the control, untreated population. Thus it reflects the effectiveness of the test substance towards the tested cell line.
Cells in exponential growth phase were plated into 96-well microtiter plate at a concentration of 3000 cells per well. Each well contained 90 μl of cell suspension. The following day, 10 μl of 10× concentrated test substances was added. Effect of helquats has been studied in the concentration range 1-100 μmol·l^−1 (or 1, 2.5, 5, 7.5, 10; 15; 25; 50 and 100 μmol·l^−1). In addition to the part of the plate containing the mentioned dilutions of test compounds there were always two control columns present, first column with medium alone (i.e. blank) and the second column with the cells in medium without test compounds (control). Into the blank and control wells the same volume of solvent (water) as the volume of the substances was added. After 72 hours of treatment with substances the measurement of viability was performed according to the manufacturer instructions. Briefly, into each well of a 96-well microtiter plate 50 μl of the prepared working solution of XTT (detection reagent) was added and then the microtiter plate was returned to the CO2 incubator. After 2 hours, the absorbance of each well at 492 nm (reference wavelength 690 nm) was measured using a multifunctional microplate reader (Tecan Genios, Austria).
The results of determination of the viability of cancer and normal cells after treatment with different concentrations of test substances are summarized in Table 9. […] Each concentration of a helquat was tested in triplicates within one IC50 value determination. Each of these IC50 value determinations was repeated in at least three independent experiments. Values above 100 μmol·l^−1 were obtained by extrapolation of data measured in the concentration range 0-100 μmol·l^−1 of helquats.

Where [2] appears, read: Homo sapiens, HUVEC, 72 hours of treatment, values above 100 μmol·l^−1 obtained by extrapolation, read-out: IC50 HUVEC.
[3] abbreviates: Homo sapiens, HUVEC, 72 hours, summary of table 9, read-out: concentrations non-toxic towards HUVEC cells.
[4] abbreviates: helquat 50 μmol · l^−1, HGC-27, firefly normalized to Renilla, 24 hours after transfection.
Where [5] appears, read: Homo sapiens, CCRF-CEM, 72 hours of treatment, read-out: IC50 CCRF CEM.
Where [6] appears, read: Homo sapiens, CCRF-CEM, 72 hours, summary of table 9, read-out: concentrations toxic towards CCRF-CEM cells.

By inhibition is commonly meant the drop in the measured response relative to a control, in per cent.

SMILES strings stand for the structures. Where two headings read alike, the source gives them in different places.

`Cn1c(/C=C/c2cc3ccccc3[n+]3c2-c2c(ccc4c2-c2cccc[n+]2CCC4)CCC3)cc2ccccc21` [MSC-C10-10, 19-((E)-2-(1-methyl-1H-indol-2-yl)vinyl)-6,7,8,11,12,13-hexahydropyrido[1′″,2′″:1″,2″]azepino[4″,3″:5′,6′]benzo[1′,2′:3,4]azepino[1,2-a]quinoline-5,14-diium trifluoromethanesulfonate]: the IC50 was at least 100 µM with HUVEC (setting [2]), over 100 µM with HUVEC (setting [3]), 11 to 25 µM with CCRF-CEM (setting [5]) and under 25 µM with CCRF-CEM (setting [6]). Moreover, in experiment [1], the inhibition at 50 µM is over 10%. The activity at 50 µM in experiment [1] (setting [4]) came out at 85%.

For the compound `Cc1[nH]c2ccccc2c1/C=C/c1cc2ccccc2[n+]2c1-c1c(ccc3c1-c1cccc[n+]1CCC3)CCC2.O=S(=O)([O-])C(F)(F)F.O=S(=O)([O-])C(F)(F)F` [MSC-C10-11, 19-((E)-2-(2-methyl-1H-indol-3-yl)vinyl)-6,7,8,11,12,13-hexahydropyrido[1′″,2″:1″,2″]azepino[4″,3″:5′,6′]benzo[1′,2′:3,4]azepino[1,2-a]quinoline-5,14-diium trifluoromethanesulfonate], the IC50 is at least 100 µM with HUVEC (72 hours of treatment, values above 100 μmol·l^−1 obtained by extrapolation, read-out: IC50 HUVEC) and 11 to 25 µM with CCRF-CEM (72 hours of treatment, read-out: IC50 CCRF CEM). The “luciferase expression relative to control (control = 100%)” value in experiment [1] (setting [4]) amounted to 74%.

For `C(=C\c1c[nH]c2c1ccc1ccccc12)/c1cc2ccccc2[n+]2c1-c1c(ccc3c1-c1cccc[n+]1CCC3)CCC2` [MSC-C13-16, 19-((E)-2-(1H-benzo[g]indol-3-yl)vinyl)-6,7,8,11,12,13-hexahydropyrido[1′″,2′″:1″,2″]azepino[4″,3″:5′,6′]benzo[1′,2′:3,4]azepino[1,2-a]quinoline-5,14-diium trifluoromethanesulfonate], the IC50 in the experiment on HUVEC (setting [2]) is at least 100 µM; in the experiment on HUVEC (setting [3]), over 100 µM; with CCRF-CEM (setting [5]), at most 10 µM; in the experiment on CCRF-CEM (setting [6]), under 25 µM. The inhibition at 50 µM in experiment [1] was over 10%. The activity at 50 µM in experiment [1] (setting [4]) came to 85%.

With `Cc1c(C)c2c(c3c1CC[n+]1ccc4ccccc4c1-3)-c1cccc(/C=C/c3ccc(-c4ccc(-c5cccs5)s4)s3)[n+]1CC2.O=S(=O)([O-])C(F)(F)F.O=S(=O)([O-])C(F)(F)F` [VDJA-C13-6, (E)-11-(2-([2,2′;5′,2″-terthiophen]-5-yl)vinyl)-6,7-dimethyl-4,5,8,9-tetrahydroisoquinolino[1,2-a]pyrido[1,2-k][2,9]phenanthroline-3,10-diium trifluoromethanesulfonate], the IC50 was at least 51 µM in the experiment on HUVEC (setting [2]) and 11 to 25 µM in the experiment on CCRF-CEM (setting [5]). Moreover, the “Quantification of expression relative to control (%)” value in experiment [1] (10 μmol · l^−1) is 59.0 ± 17.9%; in experiment [1] (50 μmol · l^−1), 27.1 ± 0.8%; in experiment [1] (150 μmol · l^−1), 15.3 ± 2.9%. The activity at 50 µM in experiment [1] (setting [4]) was 27%.
